Tests used:
Format in all cases: in vivo
[1] = system: Italian ryegrass (Lolium multiflorum); experiment: Test A preemergence, visual plant response rating; details: approx. 10 days
How it was run: (§1)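 Greenhouse pot test in loam–sand soil mix: compound in a surfactant-containing non-phytotoxic solvent applied preemergence (directed soil spray) or postemergence (one- to two-leaf plants, 2–10 cm). Injury scored visually after ~10 days, 0–100.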

[2] = system: barnyardgrass (Echinochloa crus-galli); experiment: Test A preemergence, visual plant response rating; details: approx. 10 days
How it was run: as §1

[3] = system: foxtail, green (green foxtail, Setaria viridis); experiment: Test A preemergence, visual plant response rating; details: approx. 10 days
How it was run: as §1

kochia (Kochia scoparia) [4] = experiment: Test A preemergence, visual plant response rating; details: approx. 10 days
How it was run: as §1

[5] = system: pigweed (Amaranthus retroflexus); experiment: Test A preemergence, visual plant response rating; details: approx. 10 days
How it was run: as §1

[6] = system: ragweed (common ragweed, Ambrosia elatior); experiment: Test A preemergence, visual plant response rating; details: approx. 10 days
How it was run: as §1

[7] = system: Italian ryegrass (Lolium multiflorum); experiment: Test A postemergence, visual plant response rating; details: for Ryegrass, Italian plant response rating (0 to 100 scale): 500 g ai/ha, postemergence, 0 is no effect, 100 is complete control; for Ryegrass, Italian plant response rating: Postemergence, 125 g ai/ha, 0 to 100 scale (0 no effect, 100 complete control)
How it was run: as §1

[8] = system: barnyardgrass (Echinochloa crus-galli); experiment: Test A postemergence, visual plant response rating; details: for Barnyardgrass plant response rating (0 to 100 scale): 500 g ai/ha, postemergence, 0 is no effect, 100 is complete control; for Barnyardgrass plant response rating: Postemergence, 125 g ai/ha, 0 to 100 scale (0 no effect, 100 complete control)
How it was run: as §1

[9] = system: blackgrass (Alopecurus myosuroides); experiment: Test A postemergence, visual plant response rating; details: for Blackgrass plant response rating (0 to 100 scale): 500 g ai/ha, postemergence, 0 is no effect, 100 is complete control; for Blackgrass plant response rating: Postemergence, 125 g ai/ha, 0 to 100 scale (0 no effect, 100 complete control)
How it was run: as §1

corn (Zea mays) = experiment: Test A postemergence, visual plant response rating; details: for Corn plant response rating (0 to 100 scale): 500 g ai/ha, postemergence, 0 is no effect, 100 is complete control; for Corn plant response rating: Postemergence, 125 g ai/ha, 0 to 100 scale (0 no effect, 100 complete control)
How it was run: as §1

[10] = system: foxtail, green (green foxtail, Setaria viridis); experiment: Test A postemergence, visual plant response rating; details: for Foxtail, Green plant response rating (0 to 100 scale): 500 g ai/ha, postemergence, 0 is no effect, 100 is complete control; for Foxtail, Green plant response rating: Postemergence, 125 g ai/ha, 0 to 100 scale (0 no effect, 100 complete control)
How it was run: as §1

[11] = system: galium (catchweed bedstraw, Galium aparine); experiment: Test A postemergence, visual plant response rating; details: for Galium plant response rating (0 to 100 scale): 500 g ai/ha, postemergence, 0 is no effect, 100 is complete control; for Galium plant response rating: Postemergence, 125 g ai/ha, 0 to 100 scale (0 no effect, 100 complete control)
How it was run: as §1

kochia (Kochia scoparia) [12] = experiment: Test A postemergence, visual plant response rating; details: for Kochia plant response rating (0 to 100 scale): 500 g ai/ha, postemergence, 0 is no effect, 100 is complete control; for Kochia plant response rating: Postemergence, 125 g ai/ha, 0 to 100 scale (0 no effect, 100 complete control)
How it was run: as §1

[13] = system: pigweed (Amaranthus retroflexus); experiment: Test A postemergence, visual plant response rating; details: for Pigweed plant response rating (0 to 100 scale): 500 g ai/ha, postemergence, 0 is no effect, 100 is complete control; for Pigweed plant response rating: Postemergence, 125 g ai/ha, 0 to 100 scale (0 no effect, 100 complete control)
How it was run: as §1

[14] = system: ragweed (common ragweed, Ambrosia elatior); experiment: Test A postemergence, visual plant response rating; details: for Ragweed plant response rating (0 to 100 scale): 500 g ai/ha, postemergence, 0 is no effect, 100 is complete control; for Ragweed plant response rating: Postemergence, 125 g ai/ha, 0 to 100 scale (0 no effect, 100 complete control)
How it was run: as §1

[15] = system: wheat (Triticum aestivum); experiment: Test A postemergence, visual plant response rating; details: for Wheat plant response rating (0 to 100 scale): 500 g ai/ha, postemergence, 0 is no effect, 100 is complete control; for Wheat plant response rating: Postemergence, 125 g ai/ha, 0 to 100 scale (0 no effect, 100 complete control)
How it was run: as §1

[16] = system: barnyardgrass (Echinochloa crus-galli); experiment: Test B flooded paddy test, visual plant response rating; details: 250 g ai/ha, Flood, applied to paddy water, 2-leaf stage, evaluated after 13 to 15 days
How it was run: (§2)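 Rice, umbrella sedge, ducksalad and barnyardgrass grown to 2-leaf stage; pots flooded 3 cm above soil and compound applied directly to paddy water, depth maintained.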

[17] = system: ducksalad (Heteranhera limosa); experiment: as above; details: 250 g ai/ha, Flood, applied to paddy water, 2-leaf stage, evaluated after 13 to 15 days
How it was run: as §2

rice (Oryza sativa) = experiment: as above; details: 250 g ai/ha, Flood, applied to paddy water, 2-leaf stage, evaluated after 13 to 15 days
How it was run: as §2

[18] = system: sedge, umbrella (small-flower umbrella sedge, Cyperus difformis); experiment: as above; details: 250 g ai/ha, Flood, applied to paddy water, 2-leaf stage, evaluated after 13 to 15 days
How it was run: as §2

| SMILES | Ryegrass, Italian plant response rating (0 to 100 scale) ([1]; 125 g ai/ha Preemergence) | Ryegrass, Italian plant response rating (0 to 100 scale) ([1]; 500 g ai/ha Preemergence) | Barnyardgrass plant response rating (0 to 100 scale) ([2]; 125 g ai/ha Preemergence) | Barnyardgrass plant response rating (0 to 100 scale) ([2]; 500 g ai/ha Preemergence) | Foxtail, Green plant response rating (0 to 100 scale) ([3]; 125 g ai/ha Preemergence) | Foxtail, Green plant response rating (0 to 100 scale) ([3]; 500 g ai/ha Preemergence) | Kochia plant response rating (0 to 100 scale) (kochia (Kochia scoparia) [4]; 125 g ai/ha Preemergence) | Kochia plant response rating (0 to 100 scale) (kochia (Kochia scoparia) [4]; 500 g ai/ha Preemergence) | Pigweed plant response rating (0 to 100 scale) ([5]; 125 g ai/ha Preemergence) | Pigweed plant response rating (0 to 100 scale) ([5]; 500 g ai/ha Preemergence) | Ragweed plant response rating (0 to 100 scale) ([6]; 125 g ai/ha Preemergence) | Ragweed plant response rating (0 to 100 scale) ([6]; 500 g ai/ha Preemergence) | Ryegrass, Italian plant response rating (0 to 100 scale) [7] | Ryegrass, Italian plant response rating [7] | Barnyardgrass plant response rating (0 to 100 scale) [8] | Barnyardgrass plant response rating [8] | Blackgrass plant response rating (0 to 100 scale) [9] | Blackgrass plant response rating [9] | Corn plant response rating (0 to 100 scale) (corn (Zea mays)) | Corn plant response rating (corn (Zea mays)) | other results |
| --- | --- | --- | --- | --- | --- | --- | --- | --- | --- | --- | --- | --- | --- | --- | --- | --- | --- | --- | --- | --- | --- |
| CCO/N=C(\c1ccccc1C)c1c(O)c(C)nn(C)c1=O [Compound 14] | 20 | 90 | 40 | 80 | 20 | 70 | 0 | 20 | 0 | 50 | 80 | 80 | 60 | 60 | 40 | 20 | 60 | 30 | 10 | 0 | Foxtail, Green plant response rating (0 to 100 scale) [10]: 40; Foxtail, Green plant response rating [10]: 20; Galium plant response rating (0 to 100 scale) [11]: 90; Galium plant response rating [11]: 90; Kochia plant response rating (0 to 100 scale) (kochia (Kochia scoparia) [12]): 50; Kochia plant response rating (kochia (Kochia scoparia) [12]): 20; Pigweed plant response rating (0 to 100 scale) [13]: 80; Pigweed plant response rating [13]: 20; Ragweed plant response rating (0 to 100 scale) [14]: 70; Ragweed plant response rating [14]: 60; Wheat plant response rating (0 to 100 scale) [15]: 0; Wheat plant response rating [15]: 0; Plant response rating, Barnyardgrass (0 to 100 scale, 0 is no effect, 100 is complete control) [16]: 0; Plant response rating, Ducksalad (0 to 100 scale, 0 is no effect, 100 is complete control) [17]: 0; Plant response rating, Rice (0 to 100 scale, 0 is no effect, 100 is complete control) (rice (Oryza sativa)): 0; Plant response rating, Sedge, Umbrella (0 to 100 scale, 0 is no effect, 100 is complete control) [18]: 0 |
| CCn1nc(C)c(O)c(/C(=N/OC)c2cccc(C)c2)c1=O [Compound 1] | 0 | 40 | 0 | 0 | 10 | 30 | 0 | 0 | 0 | 0 | 0 | 10 | 20 | 0 | 10 | 0 | 20 | 0 | 0 | 0 | Foxtail, Green plant response rating (0 to 100 scale) [10]: 10; Foxtail, Green plant response rating [10]: 0; Galium plant response rating (0 to 100 scale) [11]: 30; Galium plant response rating [11]: 0; Kochia plant response rating (0 to 100 scale) (kochia (Kochia scoparia) [12]): 0; Kochia plant response rating (kochia (Kochia scoparia) [12]): 0; Pigweed plant response rating (0 to 100 scale) [13]: 0; Pigweed plant response rating [13]: 0; Ragweed plant response rating (0 to 100 scale) [14]: 0; Ragweed plant response rating [14]: 0; Wheat plant response rating (0 to 100 scale) [15]: 0; Wheat plant response rating [15]: 0; Plant response rating, Barnyardgrass (0 to 100 scale, 0 is no effect, 100 is complete control) [16]: 0; Plant response rating, Ducksalad (0 to 100 scale, 0 is no effect, 100 is complete control) [17]: 0; Plant response rating, Rice (0 to 100 scale, 0 is no effect, 100 is complete control) (rice (Oryza sativa)): 0; Plant response rating, Sedge, Umbrella (0 to 100 scale, 0 is no effect, 100 is complete control) [18]: 0 |
| CCn1nc(C)c(O)c(C(=NOC)c2cccc(Cl)c2)c1=O (mixture of isomers) [Compound 2] | 20 | 60 | 0 | 50 | 0 | 50 | 0 | 0 | 0 | 0 | 0 | 0 | 80 | 20 | 30 | 0 | 20 | 0 | 0 | 0 | Foxtail, Green plant response rating (0 to 100 scale) [10]: 20; Foxtail, Green plant response rating [10]: 0; Galium plant response rating (0 to 100 scale) [11]: 30; Galium plant response rating [11]: 10; Kochia plant response rating (0 to 100 scale) (kochia (Kochia scoparia) [12]): 20; Kochia plant response rating (kochia (Kochia scoparia) [12]): 10; Pigweed plant response rating (0 to 100 scale) [13]: 10; Pigweed plant response rating [13]: 0; Ragweed plant response rating (0 to 100 scale) [14]: 20; Ragweed plant response rating [14]: 10; Wheat plant response rating (0 to 100 scale) [15]: 10; Wheat plant response rating [15]: 10; Plant response rating, Barnyardgrass (0 to 100 scale, 0 is no effect, 100 is complete control) [16]: 0; Plant response rating, Ducksalad (0 to 100 scale, 0 is no effect, 100 is complete control) [17]: 0; Plant response rating, Rice (0 to 100 scale, 0 is no effect, 100 is complete control) (rice (Oryza sativa)): 0; Plant response rating, Sedge, Umbrella (0 to 100 scale, 0 is no effect, 100 is complete control) [18]: 0 |
| CO/N=C(\c1cccc(C)c1C)c1c(O)c(C)nn(C)c1=O [Compound 22] | 10 | 30 | 0 | 0 | 0 | 0 | 10 | 10 | 30 | 90 | 50 | 90 | 30 | 10 | 10 | 0 | 40 | 10 | 0 | 0 | Foxtail, Green plant response rating (0 to 100 scale) [10]: 0; Foxtail, Green plant response rating [10]: 0; Galium plant response rating (0 to 100 scale) [11]: 60; Galium plant response rating [11]: 60; Kochia plant response rating (0 to 100 scale) (kochia (Kochia scoparia) [12]): 30; Kochia plant response rating (kochia (Kochia scoparia) [12]): 20; Pigweed plant response rating (0 to 100 scale) [13]: 50; Pigweed plant response rating [13]: 30; Ragweed plant response rating (0 to 100 scale) [14]: 50; Ragweed plant response rating [14]: 40; Wheat plant response rating (0 to 100 scale) [15]: 0; Wheat plant response rating [15]: 0; Plant response rating, Barnyardgrass (0 to 100 scale, 0 is no effect, 100 is complete control) [16]: 0; Plant response rating, Ducksalad (0 to 100 scale, 0 is no effect, 100 is complete control) [17]: 0; Plant response rating, Rice (0 to 100 scale, 0 is no effect, 100 is complete control) (rice (Oryza sativa)): 0; Plant response rating, Sedge, Umbrella (0 to 100 scale, 0 is no effect, 100 is complete control) [18]: 0 |

Source: patent US20210045385A1, “PYRIDAZINONE-SUBSTITUTED KETOXIMES AS HERBICIDES” (FMC Corporation, priority 2018, published 2021)
